# Results: patent publication US4992450A, “Piperidine opioid antagonists” (Eli Lilly and Company, priority 1989, dated 1991)
# Where a name gives a salt, the structure may show the parent alone. Read-outs that look alike come from different tables or passages of the source.
# Experiments:
# mu receptor = target: T1, mu receptor (Mus musculus, UniProt P42866); assay: Mouse writhing assay, antagonism of morphine analgesia (mu); assay type: in vivo, CF-1 male mice; settings: sc, read-out: Mu AD50
# T1 construct: Five CF-1 male mice (Charles River, Portage, Mich.); from tissue; host or cells: whole living CF-1 male mice (in vivo)
# T1 sequence (P42866 whole entry): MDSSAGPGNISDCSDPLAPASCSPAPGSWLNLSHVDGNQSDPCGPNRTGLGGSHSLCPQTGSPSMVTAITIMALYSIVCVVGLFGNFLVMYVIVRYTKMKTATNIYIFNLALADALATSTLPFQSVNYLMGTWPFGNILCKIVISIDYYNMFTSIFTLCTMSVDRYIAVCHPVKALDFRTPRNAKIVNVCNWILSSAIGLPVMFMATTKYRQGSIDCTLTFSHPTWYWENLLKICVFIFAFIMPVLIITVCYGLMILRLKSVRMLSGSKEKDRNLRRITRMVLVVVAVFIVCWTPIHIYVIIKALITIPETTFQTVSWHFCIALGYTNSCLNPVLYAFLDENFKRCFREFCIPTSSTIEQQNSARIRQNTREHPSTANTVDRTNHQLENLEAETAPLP
# kappa receptors = target: T2, kappa receptors (Rattus norvegicus, UniProt P34975); assay: Rat diuresis assay, antagonism of bremazocine-induced urination; assay type: in vivo, male Long-Evans hooded rats; settings: sc, rats, s.c., urinary output reduced to 50% of effect of 0.08 mg/kg bremazocine alone
# T2 construct: sixty male Long-Evans hooded rats; from tissue; host or cells: whole living male Long-Evans hooded rats (in vivo)
# T2 sequence (P34975 whole entry): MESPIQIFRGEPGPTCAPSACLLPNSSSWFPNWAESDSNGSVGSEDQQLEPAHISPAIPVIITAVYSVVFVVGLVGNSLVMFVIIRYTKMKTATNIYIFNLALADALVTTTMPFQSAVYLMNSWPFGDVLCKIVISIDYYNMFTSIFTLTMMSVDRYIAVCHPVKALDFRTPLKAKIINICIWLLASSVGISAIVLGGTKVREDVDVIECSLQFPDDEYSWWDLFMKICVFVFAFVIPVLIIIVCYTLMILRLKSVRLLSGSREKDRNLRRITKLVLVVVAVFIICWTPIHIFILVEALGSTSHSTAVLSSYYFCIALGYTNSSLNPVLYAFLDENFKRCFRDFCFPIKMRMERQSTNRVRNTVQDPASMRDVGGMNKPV
# Method: As such, the compounds of the invention were also evaluated in a rat diuresis assay conducted according to the following procedure described by Leander et al. in Drug Development Research 4:421-427 (1984) in an effort to further establish the ability of the present compounds to block kappa receptors.
# According to this procedure, sixty male Long-Evans hooded rats (Charles River Breeding Laboratories, Portage, Mich.) weighing between about 300 and 500 grams each were housed either individually or in pairs in a temperature-controlled (23° C.) colony room which was illuminated between 6:00 A.M. and 6:00 P.M. Rodent chow and tap water were continuously available except during the measurement of urine output. The animals were used repeatedly, but no more frequently than twice a week.
# The animals were then injected with various doses of the test compounds. To measure urine output, the animals were removed from the home cages, weighed, injected and placed in metabolism cages for 5 hr. Excreted urine was funneled into graduated cylinders. Cumulative urine volumes were determined at designated time intervals, usually at 2 and 5 hr after injection.
# The compounds which are salt forms were dissolved in distilled water. If necessary, the compounds were dissolved in distilled water with the aid of either a few drops of lactic acid or hydrochloric acid and gentle warming. All injections were s.c. in a volume of 1 ml/kg of body weight. During tests for antagonism, two injections were given, one on each side of the body.
# In the Table, column 1 provides the Example Number of the compound tested; column 2, the amount of compound in mg/kg necessary to reduce the urinary output to 50% of the effect produced by 0.08 mg/kg of bremazocine alone two hours after injection of bremazocine and the test compound; and column 3, the amount of compound in mg/kg necessary to reduce the urinary output to 50% of the effect produced by 0.08 mg/kg of bremazocine alone five hours after injection of bremazocine and the test compound.
# [1] = system: meal fed obese Zucker rats; assay: Food consumption assay in meal fed obese Zucker rats; assay type: in vivo; settings: Rattus norvegicus, sc, 4 h, amount to decrease food consumption 20% during first four hours
# Source text: The following assay was employed to evaluate the ability of the compounds of the invention to effect food and water consumption of meal fed obese Zucker rats.
# According to this procedure, 3-4 month old obese Zucker rats were trained to eat food daily from 8:00 A.M. to 4:00 P.M. only, such that the body weight gain approximates that if the rats were fed ad libitum. These rats were allowed to consume water at all times. Four groups of rats with four rats in each group, two female and two male, were formed. One group served as control for the other three groups each day. Each of the other groups were given a subcutaneous dose of the compound to be evaluated. The test compound was formulated in physiological saline containing 10% dimethylsulfoxide by volume.
# Animals remained drug free for 4 days before the next test. Food and water consumption of each rat were measured for the first four hours. A test on one compound was run for three consecutive days. The drug effect was expressed as the percent of the control for that test day.
# In the Table, column 1 gives the Example Number of the compound evaluated; and column 2 provides the ED20 in mg/kg, wherein ED20 represents the amount of compound evaluated in mg/kg necessary to decrease food consumption 20% during the first four hours of the experiment.
# kappa receptor = target: T3, kappa receptor (Mus musculus, UniProt P33534); assay: in vivo; design: species or system CF-1 male mice; settings: sc, read-out: Kappa AD50
# T3 construct: Five CF-1 male mice (Charles River, Portage, Mich.); from tissue; host or cells: whole living CF-1 male mice (in vivo)
# T3 sequence (P33534 whole entry): as the sequence (P34975 whole entry) above, with E11D, A17S, P51S, V308A counted along it
# [2] = 2 h, two hours after injection, read-out: AD50 Two Hours
# [3] = 5 h, five hours after injection, read-out: AD50 Five Hours
SMILES,ED50 (mu receptor) [mg/kg],ED50 (kappa receptors; [2]) [mg/kg],ED50 (kappa receptors; [3]) [mg/kg],ED20 [1] [mg/kg],ED50 (kappa receptor) [mg/kg]
"CCCCCCCN1CCC(C)(c2cccc(O)c2)C(C)C1 (stereo not drawn) [Example 8, trans-(±)-1-(n-Heptyl)-3,4-dimethyl-4-(3-hydroxyphenyl)piperidine hydrochloride]",0.21,3.77,3.33,0.44,0.64
"C[C@H]1CN(CCC(O)C2CCCC2)CC[C@@]1(C)c1cccc(O)c1 (relative stereo) [Example 18, trans-(±)-1-[R,S-(1-Cyclopentylpropanol-3-yl)]-3,4-dimethyl-4-(3-hydroxyphenyl)piperidine hydrochloride]",0.04,–,–,0.07,0.08
"C[C@H]1CN(CC[C@@H](O)C2CCCCC2)CC[C@@]1(C)c1cccc(O)c1 [Example 25, trans-(+)-1-[R-(3-Hydroxy-3-cyclohexylpropyl)]-3,4-dimethyl-4-(3-hydroxyphenyl)piperidine]",0.03,–,–,0.13,0.36
"C[C@H]1CN(CCCc2cccs2)CC[C@@]1(C)c1cccc(O)c1 (stereo in doubt) [Example 36, trans-(+)-1-[3-(2-Thienyl)propyl]-3,4-dimethyl-4-(3-hydroxyphenyl)piperidine]",0.05,4.65,1.65,0.05,0.11
"CCCC(O)CCN1CC[C@@](C)(c2cccc(O)c2)[C@@H](C)C1 (relative stereo) [Example 30, trans-(±)-1-[R,S-(3-Hydroxyhexyl)]-3,4-dimethyl-4-(3-hydroxyphenyl)piperidine hydrochloride]",0.11,–,–,–,0.47
"O=C1CC[C@@]2(O)[C@H]3Cc4ccc(O)c5c4[C@@]2(CCN3CC2CC2)[C@H]1O5 [Compound F, naltrexone, reference compound]",–,–,–,2.05,–
"CCCCCC(=O)CCN1CCC(C)(c2cccc(O)c2)C(C)C1 (stereo not drawn) [Example 32, trans-(±)-1-(3-Oxo-n-octyl)-3,4-dimethyl-4-(3-hydroxyphenyl)piperidine hydrochloride]",0.17,–,–,–,3.5
"CC1CN(CC2CCCC2)CCC1(C)c1cccc(O)c1 (stereo not drawn) [Example 5, trans-(±)-1-(Cyclopentylmethyl)-3,4-dimethyl-4-(3-hydroxyphenyl)piperidine hydrochloride]",1.01,1.91,0.92,–,0.54
"CC1CN(CCC(=O)C2CCCCC2)CCC1(C)c1cccc(O)c1 (stereo not drawn) [Example 33, trans-(±)-1-(3-Oxo-3-cyclohexylpropyl)-3,4-dimethyl-4-(3-hydroxyphenyl)piperidine hydrochloride]",0.12,–,–,–,0.26
"CC1CN(CCc2cccs2)CCC1(C)c1cccc(O)c1 (stereo not drawn) [Example 38, trans-(±)-1-[2-(2-Thienyl)ethyl]-3,4-dimethyl-4-(3-hydroxyphenyl)piperidine hydrochloride]",0.25,–,2,–,0.25
"CCCCCN1CCC(C)(c2cccc(O)c2)C(C)C1 (stereo not drawn) [Example 14, trans-(±)-1-(n-Pentyl)-3,4-dimethyl-4-(3-hydroxyphenyl)piperidine hydrochloride]",0.37,0.78,0.69,4.47,0.6
"CC1CN(CCCC2CCCC2)CCC1(C)c1cccc(O)c1 (stereo not drawn) [Example 9, trans-(±)-1-(3-Cyclopentylpropyl)-3,4-dimethyl-4-(3-hydroxyphenyl)piperidine hydrochloride]",0.12,2.4,0.79,1.25,0.13
"C[C@H]1CN(CCC(=O)c2ccccc2)CC[C@@]1(C)c1cccc(O)c1 (relative stereo) [Compound C, 3-[4β-(3-Hydroxyphenyl)-3β,4α-dimethylpiperidino]propiophenone maleate, reference compound]",0.14,–,–,3.72,4.5
"CCCCCCN1CC[C@@](C)(c2cccc(O)c2)[C@@H](C)C1 (stereo in doubt) [Example 1, trans-(+)-1-(n-Hexyl)-3,4-dimethyl-4-(3-hydroxyphenyl)piperidine hydrochloride]",0.26,–,–,0.08,0.22
"C=CCN1CC[C@]23c4c5ccc(O)c4O[C@H]2C(=O)CC[C@@]3(O)[C@H]1C5 [Compound E, naloxone, reference compound]",–,–,–,1.4,–
"CCCCCCN1CC[C@](C)(c2cccc(O)c2)[C@H](C)C1 (stereo in doubt) [Example 2, trans-(-)-1-(n-Hexyl)-3,4-dimethyl-4-(3-hydroxyphenyl)piperidine hydrochloride]",0.21,–,–,1.25,0.29
"CCCCCCN1CCC(C)(c2cccc(O)c2)C(C)C1 (stereo not drawn) [Example 22, trans-(±)-1-(n-Hexyl)-3,4-dimethyl-4-(3-hydroxyphenyl)piperidine hydrochloride]",0.05,1.31,0.7,0.78,0.11
"CC1CN(CCC2CCCCC2)CCC1(C)c1cccc(O)c1 (stereo not drawn) [Example 13, trans-(±)-1-(2-Cyclohexylethyl)-3,4-dimethyl-4-(3-hydroxyphenyl)piperidine hydrochloride]",0.1,–,–,4.56,0.12
"CC(C)CCCCN1CC[C@](C)(c2cccc(O)c2)[C@H](C)C1 (stereo in doubt) [Example 29, trans-(-)-1-(5-Methylhexyl)-3,4-dimethyl-4-(3-hydroxyphenyl)piperidine hydrochloride]",0.35,–,–,0.31,0.89
"CC1CN(CCCc2cccs2)CCC1(C)c1cccc(O)c1 (stereo not drawn) [Example 35, trans-(±)-1-[3-(2-Thienyl)propyl]-3,4-dimethyl-4-(3-hydroxyphenyl)piperidine hydrochloride]",0.22,2.2,1.04,0.08,0.3
"CC(C)C(O)CCN1CC[C@@](C)(c2cccc(O)c2)[C@@H](C)C1 (relative stereo) [Example 20, trans-(±)-1-[R,S-(3-Hydroxy-4-methylpentyl)]-3,4-dimethyl-4-(3-hydroxyphenyl)piperidine hydrochloride]",0.14,–,–,0.91,0.35
"CC(C)CCCCN1CC[C@@](C)(c2cccc(O)c2)[C@@H](C)C1 (stereo in doubt) [Example 28, trans-(+)-1-(5-Methylhexyl)-3,4-dimethyl-4-(3-hydroxyphenyl)piperidine hydrochloride]",0.08,–,–,0.12,0.22
"C[C@@H]1CN(CCCc2cccs2)CC[C@]1(C)c1cccc(O)c1 (stereo in doubt) [Example 37, trans-(-)-1-[3-(2-Thienyl)propyl]-3,4-dimethyl-4-(3-hydroxyphenyl)piperidine hydrochloride]",0.24,2.92,1.66,0.19,0.65
"CC1CN(CCC(C)(C)C)CCC1(C)c1cccc(O)c1 (stereo not drawn) [Example 12, trans-(±)-1-(3,3-Dimethylbutyl)-3,4-dimethyl-4-(3-hydroxyphenyl)piperidine hydrochloride]",0.56,7.89,8.13,–,0.42
